Measurements: the supplement of paper PMC5844555

Key:
Assay in all cases: 3' UTR reporter interaction score (median-centred robust z-score of log2 firefly/Renilla activity); higher = less repression of the 3' UTR reporter
Conditions in all cases: HEK293T; 48 h
PHOX2B = system: PHOX2B
Summary of the method: (§1)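 Using DharmaFECT Duo, HEK293T cells (10,000/well, 96-well plates) were co-transfected with 2.5 pmol miRNA mimic, 100 ng firefly luc2P reporter containing the gene's 3' UTR and 20 ng Renilla pRL-TK control, and dual-luciferase activity was read 48 h later. The interaction score is the log firefly/Renilla ratio as a per-plate robust z-score (median, median absolute deviation), median-centred per miRNA, averaged over at least two independent screens; lower, more negative values indicate interaction.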

FBXW7 = system: FBXW7
Summary of the method: as §1

BRCA2 = system: BRCA2
Summary of the method: as §1

PHF6 = system: PHF6
Summary of the method: as §1

MYT1L = system: MYT1L
Summary of the method: as §1

TP53 = system: TP53
Summary of the method: as §1

MYCN = system: MYCN
Summary of the method: as §1

RB1 = system: RB1
Summary of the method: as §1

MYB = system: MYB
Summary of the method: as §1

ZEB2 = system: ZEB2
Summary of the method: as §1

HRAS = system: HRAS
Summary of the method: as §1

EZH2 = system: EZH2
Summary of the method: as §1

MYC = system: MYC
Summary of the method: as §1

NOTCH1 = system: NOTCH1
Summary of the method: as §1

| Sequence | 3' UTR reporter interaction score (PHOX2B) | 3' UTR reporter interaction score (FBXW7) | 3' UTR reporter interaction score (BRCA2) | 3' UTR reporter interaction score (PHF6) | 3' UTR reporter interaction score (MYT1L) | 3' UTR reporter interaction score (TP53) | 3' UTR reporter interaction score (MYCN) | 3' UTR reporter interaction score (RB1) | 3' UTR reporter interaction score (MYB) | 3' UTR reporter interaction score (ZEB2) | 3' UTR reporter interaction score (HRAS) | 3' UTR reporter interaction score (EZH2) | 3' UTR reporter interaction score (MYC) | 3' UTR reporter interaction score (NOTCH1) |
| --- | --- | --- | --- | --- | --- | --- | --- | --- | --- | --- | --- | --- | --- | --- |
| UUUAGGAUAAGCUUGACUUUUG | -0.958 | 1.12 | 0.711 | -0.597 | 0.523 | 0.0255 | -0.873 | -0.349 | 0.0477 | -2.69 | -0.108 | 0.299 | -0.602 | -0.42 |
| UAGCACCAUUUGAAAUCGGU | -0.0846 | -2.01 | 0.875 | -0.281 | -0.0531 | -0.108 | -3.2 | -0.0587 | 0.262 | -0.664 | 0.156 | 0.53 | 0.499 | 0.946 |
| AUCACACAAAGGCAACUUUUGU | 0.549 | -0.0452 | -0.664 | -0.33 | 0.734 | -0.723 | 0.776 | 0.566 | 0.989 | -0.747 | -0.777 | -1.06 | 0.0727 | 0.929 |
| AAGCUGCCAGUUGAAGAACUGU | 0.0996 | -0.354 | -0.407 | -0.206 | -1.31 | -0.365 | -0.291 | 0.935 | 0.23 | 0.607 | 0.475 | -0.11 | -0.252 | 1.36 |
| UGUAGUGUUUCCUACUUUAUGGA | 0.885 | -0.472 | -3.32 | -0.93 | 1.44 | -0.138 | 1.22 | -0.511 | 0.85 | -2.54 | 0.941 | 0.133 | 0.753 | -0.00364 |
| GCAAAGCACACGGCCUGCAGAGA | -0.597 | 0.141 | 0.0737 | 1.65 | -0.692 | -0.0423 | -0.217 | -1.65 | 1.11 | 0.307 | -0.313 | 0.138 | 0.499 | 0.357 |
| UGGAGGAGAAGGAAGGUGAUG | 2.06 | -0.125 | -2.61 | -0.248 | 2.74 | -0.557 | 0.481 | 1.82 | 1.88 | 3.77 | -0.351 | -2.61 | -2.42 | -0.968 |
| UUAAUGCUAAUCGUGAUAGGGG | 0.553 | 0.373 | -0.67 | -0.0755 | -0.119 | 0.0933 | -0.313 | -0.667 | -1.61 | -0.523 | 0.347 | 1.21 | 0.891 | 0.178 |
| AUGGAGAUAGAUAUAGAAAU | 0.37 | 0.0761 | -0.571 | -0.821 | -1.67 | 0.174 | -0.424 | -0.936 | -0.0865 | 1.49 | 0.428 | 1.16 | 0.503 | -0.424 |
| CUUUCAGUCGGAUGUUUACAGC | -0.851 | -0.0926 | 0.0637 | -0.685 | -0.118 | 0.358 | 0 | 0.295 | 0.713 | -0.248 | 0.423 | -0.714 | -0.326 | 0.359 |
| UCAAGAGCAAUAACGAAAAAUGU | -0.662 | 0.698 | 0.701 | 0.162 | -2.38 | 0.338 | -0.782 | -2.16 | -0.127 | 0.703 | -0.0915 | -0.0128 | -0.189 | 0.351 |
| AGCUACAUCUGGCUACUGGGUCUC | 0.255 | 0.465 | -0.144 | -0.555 | -0.398 | 0.614 | 1.39 | -3.28 | -3.44 | -1.04 | 1.2 | -0.0907 | 0.941 | 0.41 |
| UCUACAAAGGGAAGCCCUUUCUG | -0.778 | -0.547 | 0.423 | 0.0225 | 0.66 | -0.365 | 0.12 | 0.712 | 0.56 | -0.71 | -0.0822 | 0.229 | -0.127 | -0.427 |
| AAAGCGCUUCUCUUUAGAGGA | 0.331 | 0.112 | -0.521 | -0.164 | -0.414 | -0.0242 | -0.629 | -0.785 | -0.0819 | 0.196 | 0.681 | -0.591 | -0.0856 | 0.581 |
| CAGUGCAAUGUUAAAAGGGCAU | 0.897 | 0.774 | -0.00105 | 0.0914 | -0.334 | -0.31 | 1.42 | 1.55 | -1.89 | -0.231 | -0.0408 | -0.606 | 0.265 | 0.727 |
| AACAUUCAACCUGUCGGUGAGU | 0.334 | 0.747 | -1.56 | 0.226 | 1.67 | -0.761 | -1.2 | 0.216 | 1.08 | 1.39 | -0.974 | -0.0307 | -0.157 | 0.774 |
| AGGUUACCCGAGCAACUUUGCA | 2.07 | -1.16 | -1.98 | 0.436 | 2.75 | -1.44 | 0.0957 | 2.97 | 1.71 | 0.562 | -1.62 | -1.68 | -0.29 | 0.652 |
| AAAGCGCUUCCCUUCAGAGUGU | 1.41 | 1.07 | -0.304 | 0.134 | -0.332 | 0.336 | -0.904 | -1.21 | 0.692 | -0.49 | -0.152 | -0.357 | -0.758 | 0.385 |
| GCGACCCAUACUUGGUUUCAG | -1.24 | 0.104 | 0.00941 | -1.74 | -5.03e-17 | -0.0561 | 0.527 | -1.26 | 0.445 | -0.392 | -0.348 | 1.08 | -0.469 | 0.351 |
